How the values were obtained:
[1] = tested on: TMZ-resistant glioma cell lines; test: cytotoxicity of noscapine in TMZ-resistant glioma cell lines; type: cell-based
[2] = tested on: TMZ-resistant tumor cells; test: migration and invasion of TMZ-resistant tumor cells; type: cell-based
[3] = tested on: TMZ-resistant U251 glioma cells; test: intracranial rodent xenograft tumor model, survival; type: in vivo, nude mice
Text: TMZ-resistant U251 glioma cells (R) were implanted intracranially into nude mice. After 7 days, treatment was initiated. […] Survival was used as an endpoint; * signifies statistical significance (p<0.05).
After 7 days, treatment was initiated.

[4] = in vivo, cited from earlier work

COc1ccc2c(c1OC)C(=O)O[C@@H]2[C@H]1c2c(cc3c(c2OC)OCO3)CCN1C [noscapine, (3S)-6,7-Dimethoxy-3-[(5R)-5,6,7,8-tetrahydro-4-methoxy-6-methyl-1,3-dioxolo (4,5-g)isoquinolin-5-yl]-1(3H)-isobenzofuranone]
cell death ([1]; 4 different TMZ-resistant glioma cell lines): caused cell death
cell cycle arrest ([1]; TMZ-resistant glioma cell lines, prolonged arrest causes cell cytotoxicity): caused an arrest in the G2/M phase of cell cycle
invasion of TMZ-resistant tumor cells [2]: decreased
migration of TMZ-resistant tumor cells [2]: decreased
tumor growth ([3]; animal models): reduced tumor growth
survival of TMZ-resistant tumor bearing animals ([3]; noscapine 225 mg/kg twice daily by gavage, treatment from day 7 after implantation): significantly enhanced survival
oral bioavailability ([4]; po): orally bioavailable
crossing of the blood-brain-barrier [4]: known to cross the blood-brain-barrier
